Test system: U-251 MG cell line
Test: % cell proliferation of U-251 MG cell line after 72 h with non-encapsulated and encapsulated 3PO
Assay type: cell-based
Conditions: U-251 cells, inhibitor concentration 5 μM
Experimental: FIG. 5. % Cell proliferation of the U-251 MG cell line, after 72 h, using various concentrations of the non-encapsulated and encapsulated (UHT-CMNPs) model drug 3PO.
The ability of the F-CMNPs to act as drug delivery systems was also studied. […] As a proof of concept, we loaded the glucose inhibitor (2E)-3-(3-Pyridinyl)-1-(4-pyridinyl)-2-propen-1-one (3PO) in the F-CMNPs.

## O=C(/C=C/c1cccnc1)c1ccncc1 [3PO, (2E)-3-(3-Pyridinyl)-1-(4-pyridinyl)-2-propen-1-one]
  reduction of cells' proliferation: not affecting

From US20230364019A1, “Multi-targeting cell-derived nanoparticles as a versatile theranostic” (Fondazione Istituto Italiano di Tecnologia, priority 2020, published 2023)
